Experimental data: US20090105118A1, “Preparation and applications of novel complexes made by gamma-polyglutamic acid and cisplatin” (priority 2007, published 2009)

What was measured:
Lung cancer cells = conditions: mice; PG-TXL injected at 120 mg/kg; paclitaxel used alone; cited from earlier work
[1] = system: Human breast cancer cells Bcap-37; test: Bcap-37 xenograft model, survival and body weight; assay type: in vivo, BALB/C female SKID mouse; conditions: Bcap-37 xenograft mice, equivalent of 4 mg/kg cisplatin, tail vein at 0 and 5 days
Description: Human breast cancer cells Bcap-37 in DMEM with 10% […] were cultured at 37° C. and 5% CO2. 5×10^6 Bcap cells were injected in each of BALB/C female SKID mouse (18 mice, 4 week old, 20 g each). After 7 days the mice were randomly divided into 3 groups, 6 mice per group. The first group was treated with saline, the second group was treated with cisplatin, and the third group was treated with γ-PGA-CDDP. γ-PGA-CDDP complex (at equivalent of 4 mg/kg cisplatin) was injected in a tail vein at 0 and 5 days. The survival and body weight was recorded. The results are shown in FIG. 12 and FIG. 13 which are comparisons of the toxicity of γ-PGA-CDDP and CDDP based on the survival and body weight of BALB/C female mice.

[2] = In vivo toxicity study in healthy mice (survival, body weight); conditions: Kun Ming mice, 5 mg/kg tail vein at 0, 5 and 10 days
Description: 20 healthy Kun Ming mice were randomly divided (10 each for male and female) into two groups. Cisplatin and γ-PGA-CDDP was individually injected in each group in a tail vein. The injections were done at 0, 5, and 10 days at 5 mg/kg. The survival and body weight of the mice were recorded. The results are shown in FIG. 10 and FIG. 11 which are comparisons of the toxicity of γ-PGA-CDDP and CDDP based on the survival of China KM mice and based on the body weight of China KM mice.

| Compound | reduction of lung cancer cells (Lung cancer cells) | body weight change (toxicity) [1] | body weight change (in vivo toxicity) [2] | mice died ([2]; after 15 days) |
| --- | --- | --- | --- | --- |
| CC(=O)O[C@H]1C(=O)[C@@]2(C)[C@H]([C@H](OC(=O)c3ccccc3)[C@]3(O)C[C@H](OC(=O)[C@H](O)[C@@H](NC(=O)c4ccccc4)c4ccccc4)C(C)=C1C3(C)C)[C@]1(OC(C)=O)CO[C@@H]1C[C@@H]2O [paclitaxel] | 58% |  |  |  |
| cis-daimminedichloroplatinum(II) [cisplatin] |  | obvious decrease of body weight | reduced | 90% |
